According to patent publication US7803949B2, “Process for preparation of water-soluble azole prodrugs” (Eisai R&D Management Co., Ltd., priority 2005, dated 2010):
Where a name gives a salt, the structure may show the parent alone.

Experiment: hygroscopicity by the micro balance method (Gravimetric Vapour Sorption System DVS-1)
Format: physicochemical
Conditions: FIG. 2 (A); temperature 25.1° C.
Text: Next, it will be illustrated that although Compound (IV) prepared according to the present invention is a mono lysine salt, it has excellent […] in a comparison with a dilysine salt. Note that, a dilysine salt can be prepared by the methods disclosed in Published Japanese Translation of a PCT Application No. 2003-520235. […] Note that, the measurement instrument used in the micro balance method was the following apparatus:
Gravimetric Vapour Sorption System (Model DVS-1 Surface Measurement System).

SMILES: C[C@@H](c1nc(-c2ccc(C#N)cc2)cs1)[C@@](Cn1cncn1)(OCOP(=O)(O)O)c1ccc(F)cc1F [mono lysine salt]
- relative humidity at which moisture absorption phenomenon was observed: 70 % RH
